Patent US12209087B2, “AKT1 modulators” (Alterome Therapeutics, Inc., priority 2022, dated 2025)

Target: T1, full length AKT E17K (Homo sapiens, UniProt P31749, E17K)
T1 construct: host or cells: HEK-293 (ATCC CRL-1573)
Experiment: NanoBRET Target Engagement (TE) Assay
Type: cell-based
Conditions: competitive tracer displacement in living cells, read-out: AKT1 E17K IC50
Outline: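 Compound and tracer incubated 2 h before luminescence at donor 450 nm and acceptor 600 nm, with extracellular signal inhibited. EC50 by sigmoidal variable-slope regression.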

T1 sequence (P31749 whole entry E17K): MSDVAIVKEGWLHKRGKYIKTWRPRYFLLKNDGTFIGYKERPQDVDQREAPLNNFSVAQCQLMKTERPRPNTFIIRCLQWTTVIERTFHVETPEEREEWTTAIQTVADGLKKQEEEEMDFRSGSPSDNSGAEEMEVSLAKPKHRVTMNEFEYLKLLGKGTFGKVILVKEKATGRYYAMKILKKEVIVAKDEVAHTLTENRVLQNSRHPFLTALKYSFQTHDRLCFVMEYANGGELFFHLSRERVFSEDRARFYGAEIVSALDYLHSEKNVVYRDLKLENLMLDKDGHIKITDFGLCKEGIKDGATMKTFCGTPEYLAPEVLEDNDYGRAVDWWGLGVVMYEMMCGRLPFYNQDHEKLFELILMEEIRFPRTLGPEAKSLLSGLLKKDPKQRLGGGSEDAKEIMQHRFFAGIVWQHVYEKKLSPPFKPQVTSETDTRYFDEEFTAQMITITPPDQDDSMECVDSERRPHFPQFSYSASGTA

IC50	Compound
< 0.015 µM	N#Cc1ncnc(N2CC[C@@]3(CCN(Cc4ccc(-n5c(-c6cccnc6N)nc6ccc(-c7ccccc7)nc65)cc4)C3)C2)n1 [Example 255, (R)-4-(7-(4-(2-(2-aminopyridin-3-yl)-5-phenyl-3H-imidazo[4,5-b]pyridin-3-yl)benzyl)-2,7-diazaspiro[4.4]nonan-2-yl)-1,3,5-triazine-2-carbonitrile]
0.015 to 0.06 µM	C[C@@H]1CN(Cc2ccc(-n3c(-c4cccnc4N)nc4ccc(-c5ccccc5)nc43)cc2)C[C@@H](C)N1c1ncnc(C#N)n1 [Example 256, 4-((2R,6R)-4-(4-(2-(2-Aminopyridin-3-yl)-5-phenyl-3H-imidazo[4,5-b]pyridin-3-yl)benzyl)-2,6-dimethylpiperazin-1-yl)-1,3,5-triazine-2-carbonitrile]
0.015 to 0.06 µM	N#Cc1ncnc(N2CC3CCC2CN3Cc2ccc(-n3c(-c4cccnc4N)nc4ccc(-c5ccccc5)nc43)cc2)n1 (centres unmarked) [Example 257, 4-(5-(4-(2-(2-Aminopyridin-3-yl)-5-phenyl-3H-imidazo[4,5-b]pyridin-3-yl)benzyl)-2,5-diazabicyclo[2.2.2]octan-2-yl)-1,3,5-triazine-2-carbonitrile]
< 0.015 µM	N#Cc1ncnc(N2CCC3(CC2)CN(Cc2ccc(-n4c(-c5cccnc5N)nc5ccc(-c6ccccc6)nc54)cc2)C3)n1 [Example 268, 4-(2-(4-(2-(2-Aminopyridin-3-yl)-5-phenyl-3H-imidazo[4,5-b]pyridin-3-yl)benzyl)-2,7-diazaspiro[3.5]nonan-7-yl)-1,3,5-triazine-2-carbonitrile]
< 0.015 µM	N#Cc1ncnc(N2CC[C@]3(CCN(Cc4ccc(-n5c(-c6cccnc6N)nc6ccc(-c7ccccc7)nc65)cc4)C3)C2)n1 [Example 269, (S)-4-(7-(4-(2-(2-Aminopyridin-3-yl)-5-phenyl-3H-imidazo[4,5-b]pyridin-3-yl)benzyl)-2,7-diazaspiro[4.4]nonan-2-yl)-1,3,5-triazine-2-carbonitrile]
< 0.015 µM	N#Cc1ncnc(N2C[C@H]3C[C@@H]2CN3Cc2ccc(-n3c(-c4cccnc4N)nc4ccc(-c5ccccc5)nc43)cc2)n1 [Example 272, 4-((1R,4R)-5-(4-(2-(2-aminopyridin-3-yl)-5-phenyl-3H-imidazo[4,5-b]pyridin-3-yl)benzyl)-2,5-diazabicyclo[2.2.1]heptan-2-yl)-1,3,5-triazine-2-carbonitrile]
< 0.015 µM	C[C@@H]1CN(Cc2ccc(-n3c(-c4cccnc4N)nc4ccc(-c5ccccc5)nc43)cc2)CCN1c1ncnc(C#N)n1 [Example 273, (R)-4-(4-(4-(2-(2-Aminopyridin-3-yl)-5-phenyl-3H-imidazo[4,5-b]pyridin-3-yl)benzyl)-2-methylpiperazin-1-yl)-1,3,5-triazine-2-carbonitrile]
0.015 to 0.06 µM	C[C@H]1CN(Cc2ccc(-n3c(-c4cccnc4N)nc4ccc(-c5ccccc5)nc43)cc2)CCN1c1ncnc(C#N)n1 [Example 274, (S)-4-(4-(4-(2-(2-Aminopyridin-3-yl)-5-phenyl-3H-imidazo[4,5-b]pyridin-3-yl)benzyl)-2-methylpiperazin-1-yl)-1,3,5-triazine-2-carbonitrile]
< 0.015 µM	C[C@H]1CN(Cc2ccc(-n3c(-c4cccnc4N)nc4ccc(-c5ccccc5)nc43)cc2)C[C@H](C)N1c1ncnc(C#N)n1 [Example 275, 4-((2S,6S)-4-(4-(2-(2-Aminopyridin-3-yl)-5-phenyl-3H-imidazo[4,5-b]pyridin-3-yl)benzyl)-2,6-dimethylpiperazin-1-yl)-1,3,5-triazine-2-carbonitrile]
< 0.015 µM	N#Cc1ncnc(N2CCN(Cc3ccc(-n4c(-c5cccnc5N)nc5ccc(-c6ccccc6)nc54)cc3)CC23CC3)n1 [Example 276, 4-(7-(4-(2-(2-aminopyridin-3-yl)-5-phenyl-3H-imidazo[4,5-b]pyridin-3-yl)benzyl)-4,7-diazaspiro[2.5]octan-4-yl)-1,3,5-triazine-2-carbonitrile]

Further lines, the molecule ahead of its results:

Compound	IC50
N#Cc1ncnc(N2CCC3(CCN(Cc4ccc(-n5c(-c6cccnc6N)nc6ccc(-c7ccccc7)nc65)cc4)C3)C2)n1 (centres unmarked) [Example 251, 4-(7-(4-(2-(2-aminopyridin-3-yl)-5-phenyl-3H-imidazo[4,5-b]pyridin-3-yl)benzyl)-2,7-diazaspiro[4.4]nonan-2-yl)-1,3,5-triazine-2-carbonitrile]	< 0.015 µM
N#Cc1ncnc(N2CCC3(CCN(Cc4ccc(-n5c(-c6cccnc6N)nc6ccc(-c7ccccc7)nc65)cc4)C3)CC2)n1 [Example 252, 4-(2-(4-(2-(2-Aminopyridin-3-yl)-5-phenyl-3H-imidazo[4,5-b]pyridin-3-yl)benzyl)-2,8-diazaspiro[4.5]decan-8-yl)-1,3,5-triazine-2-carbonitrile]	0.015 to 0.06 µM
N#Cc1ncnc(N2CCCC3(CCN(Cc4ccc(-n5c(-c6cccnc6N)nc6ccc(-c7ccccc7)nc65)cc4)C3)C2)n1 (centres unmarked) [Example 253, 4-(2-(4-(2-(2-Aminopyridin-3-yl)-5-phenyl-3H-imidazo[4,5-b]pyridin-3-yl)benzyl)-2,7-diazaspiro[4.5]decan-7-yl)-1,3,5-triazine-2-carbonitrile]	0.015 to 0.06 µM
N#Cc1ncnc(N2CCCC3(CCN(Cc4ccc(-n5c(-c6cccnc6N)nc6ccc(-c7ccccc7)nc65)cc4)CC3)C2)n1 [Example 254, 4-(9-(4-(2-(2-Aminopyridin-3-yl)-5-phenyl-3H-imidazo[4,5-b]pyridin-3-yl)benzyl)-2,9-diazaspiro[5.5]undecan-2-yl)-1,3,5-triazine-2-carbonitrile]	< 0.015 µM
N#Cc1nccc(N2CCN(Cc3ccc(-n4c(-c5cccnc5N)nc5ccc(C6CC6)nc54)cc3)CC2)n1 [Example 258, 4-(4-(4-(2-(2-Aminopyridin-3-yl)-5-cyclopropyl-3H-imidazo[4,5-b]pyridin-3-yl)benzyl)piperazin-1-yl)pyrimidine-2-carbonitrile]	< 0.015 µM
N#Cc1nccc(N2CCN(Cc3ccc(-n4c(-c5cccnc5N)nc5ccc(-c6ccc[nH]c6=O)nc54)cc3)CC2)n1 [Example 259, 4-(4-(4-(2-(2-Aminopyridin-3-yl)-5-(2-oxo-1,2-dihydropyridin-3-yl)-3H-imidazo[4,5-b]pyridin-3-yl)benzyl)piperazin-1-yl)pyrimidine-2-carbonitrile]	< 0.015 µM
Cn1cccc(-c2ccc3nc(-c4cccnc4N)n(-c4ccc(CN5CCN(c6ccnc(C#N)n6)CC5)cc4)c3n2)c1=O [Example 260, 4-(4-(4-(2-(2-aminopyridin-3-yl)-5-(1-methyl-2-oxo-1,2-dihydropyridin-3-yl)-3H-imidazo[4,5-b]pyridin-3-yl)benzyl)piperazin-1-yl)pyrimidine-2-carbonitrile]	0.015 to 0.06 µM
Cn1cccc(-c2ccc3nc(-c4cccnc4N)n(-c4ccc(CN5CCC(Nc6ccnc(C#N)n6)CC5)cc4)c3n2)c1=O [Example 261, 4-((1-(4-(2-(2-Aminopyridin-3-yl)-5-(1-methyl-2-oxo-1,2-dihydropyridin-3-yl)-3H-imidazo[4,5-b]pyridin-3-yl)benzyl)piperidin-4-yl)amino)pyrimidine-2-carbonitrile]	< 0.015 µM
N#Cc1nccc(NC2CCN(Cc3ccc(-n4c(-c5cccnc5N)nc5ccc(C6CCC6)nc54)cc3)CC2)n1 [Example 262, 4-((1-(4-(2-(2-aminopyridin-3-yl)-5-cyclobutyl-3H-imidazo[4,5-b]pyridin-3-yl)benzyl)piperidin-4-yl)amino)pyrimidine-2-carbonitrile]	< 0.015 µM
N#Cc1nccc(NC2CCN(Cc3ccc(-n4c(-c5cccnc5N)nc5ccc(C6=CCCCC6)nc54)cc3)CC2)n1 [Example 263, 4-((1-(4-(2-(2-Aminopyridin-3-yl)-5-(cyclohex-1-en-1-yl)-3H-imidazo[4,5-b]pyridin-3-yl)benzyl)piperidin-4-yl)amino)pyrimidine-2-carbonitrile]	0.015 to 0.06 µM
N#Cc1nccc(NC2CCN(Cc3ccc(-n4c(-c5cccnc5N)nc5ccc(C6CCCCC6)nc54)cc3)CC2)n1 [Example 264, 4-((1-(4-(2-(2-Aminopyridin-3-yl)-5-cyclohexyl-3H-imidazo[4,5-b]pyridin-3-yl)benzyl)piperidin-4-yl)amino)pyrimidine-2-carbonitrile]	< 0.015 µM
N#Cc1cccc(-c2ccc3nc(-c4cccnc4N)n(-c4ccc(CN5CCC(Nc6ccnc(C#N)n6)CC5)cc4)c3n2)c1 [Example 265, 4-((1-(4-(2-(2-Aminopyridin-3-yl)-5-(3-cyanophenyl)-3H-imidazo[4,5-b]pyridin-3-yl)benzyl)piperidin-4-yl)amino)pyrimidine-2-carbonitrile]	< 0.015 µM
N#Cc1nccc(NC2CCN(Cc3ccc(-n4c(-c5cccnc5N)nc5ccc(-c6ccc(=O)[nH]c6)nc54)cc3)CC2)n1 [Example 266, 4-((1-(4-(2-(2-Aminopyridin-3-yl)-5-(6-oxo-1,6-dihydropyridin-3-yl)-3H-imidazo[4,5-b]pyridin-3-yl)benzyl)piperidin-4-yl)amino)pyrimidine-2-carbonitrile]	0.06 to 0.6 µM
N#Cc1nccc(NC2CCN(Cc3ccc(-n4c(-c5cccnc5N)nc5ccc(-c6cccc(=O)[nH]6)nc54)cc3)CC2)n1 [Example 267, 4-((1-(4-(2-(2-Aminopyridin-3-yl)-5-(6-oxo-1,6-dihydropyridin-2-yl)-3H-imidazo[4,5-b]pyridin-3-yl)benzyl)piperidin-4-yl)amino)pyrimidine-2-carbonitrile]	< 0.015 µM
N#Cc1ncnc(N2C3CCC2CN(Cc2ccc(-n4c(-c5cccnc5N)nc5ccc(-c6ccccc6)nc54)cc2)C3)n1 [Example 270, 4-(3-(4-(2-(2-Aminopyridin-3-yl)-5-phenyl-3H-imidazo[4,5-b]pyridin-3-yl)benzyl)-3,8-diazabicyclo[3.2.1]octan-8-yl)-1,3,5-triazine-2-carbonitrile]	0.06 to 0.6 µM
N#Cc1ncnc(N2CC3CCC(C2)N3Cc2ccc(-n3c(-c4cccnc4N)nc4ccc(-c5ccccc5)nc43)cc2)n1 [Example 271, 4-(8-(4-(2-(2-Aminopyridin-3-yl)-5-phenyl-3H-imidazo[4,5-b]pyridin-3-yl)benzyl)-3,8-diazabicyclo[3.2.1]octan-3-yl)-1,3,5-triazine-2-carbonitrile]	0.015 to 0.06 µM
